Biological target: ABCB1 (P-glycoprotein, P-gp, MDR1) (Homo sapiens, UniProt P08183)
Test: cell-based

Chain of ABCB1 (P-glycoprotein, P-gp, MDR1) (P08183 whole entry): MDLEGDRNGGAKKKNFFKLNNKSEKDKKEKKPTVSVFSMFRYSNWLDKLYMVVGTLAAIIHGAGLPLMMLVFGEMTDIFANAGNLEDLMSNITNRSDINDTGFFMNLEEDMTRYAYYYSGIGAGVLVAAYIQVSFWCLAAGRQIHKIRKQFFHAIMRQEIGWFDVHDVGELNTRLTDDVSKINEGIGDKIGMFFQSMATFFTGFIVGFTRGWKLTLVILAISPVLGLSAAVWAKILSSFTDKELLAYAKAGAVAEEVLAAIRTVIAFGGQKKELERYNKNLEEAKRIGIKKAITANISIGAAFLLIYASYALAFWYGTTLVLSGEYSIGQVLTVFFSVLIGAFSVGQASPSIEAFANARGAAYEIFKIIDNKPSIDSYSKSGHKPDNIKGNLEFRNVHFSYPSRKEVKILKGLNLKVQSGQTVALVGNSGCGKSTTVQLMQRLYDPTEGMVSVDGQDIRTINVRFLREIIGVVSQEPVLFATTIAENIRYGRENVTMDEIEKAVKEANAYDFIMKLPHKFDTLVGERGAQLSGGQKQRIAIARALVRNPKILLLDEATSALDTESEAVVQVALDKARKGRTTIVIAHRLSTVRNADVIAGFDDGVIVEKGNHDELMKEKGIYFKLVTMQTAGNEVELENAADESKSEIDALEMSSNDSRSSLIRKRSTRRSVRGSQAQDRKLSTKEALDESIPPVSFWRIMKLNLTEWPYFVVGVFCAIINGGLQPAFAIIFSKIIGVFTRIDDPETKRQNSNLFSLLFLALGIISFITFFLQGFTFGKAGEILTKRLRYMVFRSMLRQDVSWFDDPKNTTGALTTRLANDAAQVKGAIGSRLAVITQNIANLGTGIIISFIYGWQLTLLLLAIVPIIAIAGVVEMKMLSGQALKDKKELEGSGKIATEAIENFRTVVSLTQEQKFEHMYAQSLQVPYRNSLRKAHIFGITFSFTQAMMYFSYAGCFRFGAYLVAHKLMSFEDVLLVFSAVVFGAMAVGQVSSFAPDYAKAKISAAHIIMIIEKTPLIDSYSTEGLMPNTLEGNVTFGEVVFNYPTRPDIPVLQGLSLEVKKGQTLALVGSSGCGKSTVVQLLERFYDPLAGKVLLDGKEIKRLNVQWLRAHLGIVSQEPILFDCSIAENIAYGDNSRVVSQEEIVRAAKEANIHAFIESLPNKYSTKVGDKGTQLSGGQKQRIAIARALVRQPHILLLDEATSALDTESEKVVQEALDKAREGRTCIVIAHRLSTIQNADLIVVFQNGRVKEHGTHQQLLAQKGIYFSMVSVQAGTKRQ

C=CC(=O)Nc1cc(Nc2nccc(-c3cn(C4CC4)c4ccccc34)n2)c(OC)cc1N(C)CCN(C)C [almonertinib]
IC50: ~2000 nM

Reference: publication PMC8291035 (Biochemical pharmacology, 2021)
